The values below come from US6224850A, “Antiwrinkle cosmetic/pharmaceutical compositions comprising iridaceae extracts” (Societe L'Oreal S.A., priority 1996, dated 2001).

One assay concerns the target Glycine receptor (Rattus norvegicus, UniProt P07727). Briefly: biochemical. Format: binding.
The test system of assay [1] is convulsions induced by strychnine in mice. The settings on record: mouse, in vivo.
For a further assay, the target named is GABA-A receptor. In kind it is binding, rat. The settings on record: dose displacing 50% of tritiated muscimol; nonlabelled muscimol.

Sequence of Glycine receptor (P07727 29-457): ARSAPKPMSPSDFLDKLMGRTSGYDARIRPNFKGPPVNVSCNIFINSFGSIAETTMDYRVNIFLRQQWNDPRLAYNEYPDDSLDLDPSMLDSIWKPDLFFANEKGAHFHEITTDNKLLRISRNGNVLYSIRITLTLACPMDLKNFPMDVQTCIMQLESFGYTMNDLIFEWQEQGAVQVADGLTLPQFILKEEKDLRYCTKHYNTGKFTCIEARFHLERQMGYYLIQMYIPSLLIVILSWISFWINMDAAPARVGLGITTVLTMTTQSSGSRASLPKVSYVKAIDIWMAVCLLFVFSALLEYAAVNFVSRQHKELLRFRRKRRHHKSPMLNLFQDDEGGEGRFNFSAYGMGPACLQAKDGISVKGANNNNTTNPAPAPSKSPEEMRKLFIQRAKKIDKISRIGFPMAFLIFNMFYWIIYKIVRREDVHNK
Sequence of Glycine receptor (P20781 23-496, further chain): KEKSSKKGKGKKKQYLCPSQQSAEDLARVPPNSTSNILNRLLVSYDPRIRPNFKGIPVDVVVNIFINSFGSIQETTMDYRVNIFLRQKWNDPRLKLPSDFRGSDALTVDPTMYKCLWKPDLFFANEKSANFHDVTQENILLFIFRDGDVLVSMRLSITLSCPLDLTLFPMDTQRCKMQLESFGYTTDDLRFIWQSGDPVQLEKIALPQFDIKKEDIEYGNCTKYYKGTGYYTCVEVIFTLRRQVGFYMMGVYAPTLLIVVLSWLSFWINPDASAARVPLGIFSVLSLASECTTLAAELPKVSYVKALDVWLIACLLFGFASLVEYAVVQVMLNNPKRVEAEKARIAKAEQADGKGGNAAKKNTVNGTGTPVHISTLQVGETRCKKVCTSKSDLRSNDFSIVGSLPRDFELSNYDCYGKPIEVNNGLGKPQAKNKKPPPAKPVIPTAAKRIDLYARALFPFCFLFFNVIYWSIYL

By IC50 is commonly meant the concentration that inhibits the measured activity by half. At Glycine receptor, `O=C1C[C@@H]2OCC=C3CN4CC[C@]56c7ccccc7N1[C@H]5[C@H]2[C@H]3C[C@H]46` [strychnine] displayed an IC50 of 26.9 nM.
In the case of `CN1C(=O)CN=C(c2ccccc2)c2cc(Cl)ccc21` [Diazepam], in assay [1], the “Delay in the appearance of the convulsions” value is recorded as 3431 and the “Variation (%) of delay” value is “+1190”.
For `NCc1cc(=O)[nH]o1` [muscimol], at GABA-A receptor, the IC50 is 8.2 nM.
